Laboratory results published in patent US20110230481A2, “DERIVATIVES OF TETRABROMOBENZIMIDAZOLE, A PROCESS FOR THE PREPARATION THEREOF, A PHARMACEUTICAL COMPOSITION COMPRISING THE SAME, A METHOD OF USING THE SAME, A METHOD FOR MODULATING OR REGULATING SERINE/THREONINE KINASES, AND SERINE/THREONINE KINASES MODULATING AGENT” (SELVITA S.A., priority 2009, published 2011).

Key:
Test in all cases: KINOMEscan Max
Type in all cases: binding
[1] = target: ABL1-nonphosphorylated (Homo sapiens, UniProt P00519)
How it was run: (§1)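 Quantitative PCR of the DNA tag reports competition between test compound and an immobilized, active-site directed ligand for binding to each DNA-tagged kinase.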

[2] = target: T1, AKT1 (Homo sapiens, UniProt P31749)
T1 construct: purchased Ambit (KINOMEscan Max service)
How it was run: as §1

[3] = target: T2, AMPK-alpha2 (Homo sapiens, UniProt P54646)
T2 construct: DNA tag (qPCR label); purchased Ambit Kinomescan (contract screening)
How it was run: as §1

[4] = target: T3, CAMK2B (Homo sapiens, UniProt Q13554)
T3 construct: purchased Ambit Kinomescan (contract screening)
T3 sequence (Q13554 whole entry): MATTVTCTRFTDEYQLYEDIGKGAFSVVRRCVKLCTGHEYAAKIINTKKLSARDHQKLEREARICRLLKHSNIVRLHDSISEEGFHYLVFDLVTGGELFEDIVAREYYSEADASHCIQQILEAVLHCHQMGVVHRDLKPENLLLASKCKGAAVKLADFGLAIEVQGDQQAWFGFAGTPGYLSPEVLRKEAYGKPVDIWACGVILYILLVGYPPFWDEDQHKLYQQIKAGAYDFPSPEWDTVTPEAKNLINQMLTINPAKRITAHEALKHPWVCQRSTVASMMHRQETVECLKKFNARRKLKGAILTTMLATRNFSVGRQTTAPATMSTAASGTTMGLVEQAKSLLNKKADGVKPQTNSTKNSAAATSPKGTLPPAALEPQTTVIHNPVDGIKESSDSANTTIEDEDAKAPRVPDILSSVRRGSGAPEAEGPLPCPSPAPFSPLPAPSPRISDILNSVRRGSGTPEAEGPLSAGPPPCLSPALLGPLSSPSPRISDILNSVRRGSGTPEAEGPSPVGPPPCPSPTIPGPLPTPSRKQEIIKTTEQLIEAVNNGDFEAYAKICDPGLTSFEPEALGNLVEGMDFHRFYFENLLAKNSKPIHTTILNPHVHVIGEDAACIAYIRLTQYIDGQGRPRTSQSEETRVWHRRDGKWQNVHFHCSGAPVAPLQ
How it was run: as §1

[5] = target: T4, CAMKK2 (Homo sapiens, UniProt Q96RR4)
T4 construct: DNA tag (qPCR label); purchased Ambit Kinomescan (contract screening)
T4 sequence (Q96RR4 whole entry): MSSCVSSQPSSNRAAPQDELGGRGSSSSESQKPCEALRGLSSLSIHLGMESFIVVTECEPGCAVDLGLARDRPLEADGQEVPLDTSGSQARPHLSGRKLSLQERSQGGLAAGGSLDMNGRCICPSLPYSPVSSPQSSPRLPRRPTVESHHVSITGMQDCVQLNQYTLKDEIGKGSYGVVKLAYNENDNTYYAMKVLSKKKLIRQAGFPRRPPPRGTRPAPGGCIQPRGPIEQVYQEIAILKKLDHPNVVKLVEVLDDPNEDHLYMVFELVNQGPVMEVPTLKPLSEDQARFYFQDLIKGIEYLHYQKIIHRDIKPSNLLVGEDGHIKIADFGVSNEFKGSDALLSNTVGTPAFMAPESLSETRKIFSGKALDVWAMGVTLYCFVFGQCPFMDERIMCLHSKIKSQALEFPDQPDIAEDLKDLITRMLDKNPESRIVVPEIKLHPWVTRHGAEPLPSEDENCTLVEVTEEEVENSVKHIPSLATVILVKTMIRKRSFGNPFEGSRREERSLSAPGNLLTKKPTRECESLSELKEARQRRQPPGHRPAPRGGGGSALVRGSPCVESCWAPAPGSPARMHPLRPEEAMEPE
How it was run: as §1

[6] = target: T5, CDC2L5 (Homo sapiens, UniProt Q14004); settings: 1 μM
T5 construct: DNA tag (qPCR read-out); purchased Ambit Kinomescan
How it was run: as §1

[7] = target: CIT (Homo sapiens, UniProt O14578); settings: 1 μM
How it was run: as §1

[8] = target: T6, DLK (Homo sapiens, UniProt Q12852); settings: 1 μM
T6 construct: DNA tag (qPCR read-out)
How it was run: as §1

[9] = target: EGFR(L861Q) (Homo sapiens, UniProt P00533, L861Q); settings: 1 μM
How it was run: as §1

[10] = target: T7, EPHA3 (Homo sapiens, UniProt P29320)
T7 construct: DNA tag (qPCR read-out)
T7 sequence (P29320 21-983): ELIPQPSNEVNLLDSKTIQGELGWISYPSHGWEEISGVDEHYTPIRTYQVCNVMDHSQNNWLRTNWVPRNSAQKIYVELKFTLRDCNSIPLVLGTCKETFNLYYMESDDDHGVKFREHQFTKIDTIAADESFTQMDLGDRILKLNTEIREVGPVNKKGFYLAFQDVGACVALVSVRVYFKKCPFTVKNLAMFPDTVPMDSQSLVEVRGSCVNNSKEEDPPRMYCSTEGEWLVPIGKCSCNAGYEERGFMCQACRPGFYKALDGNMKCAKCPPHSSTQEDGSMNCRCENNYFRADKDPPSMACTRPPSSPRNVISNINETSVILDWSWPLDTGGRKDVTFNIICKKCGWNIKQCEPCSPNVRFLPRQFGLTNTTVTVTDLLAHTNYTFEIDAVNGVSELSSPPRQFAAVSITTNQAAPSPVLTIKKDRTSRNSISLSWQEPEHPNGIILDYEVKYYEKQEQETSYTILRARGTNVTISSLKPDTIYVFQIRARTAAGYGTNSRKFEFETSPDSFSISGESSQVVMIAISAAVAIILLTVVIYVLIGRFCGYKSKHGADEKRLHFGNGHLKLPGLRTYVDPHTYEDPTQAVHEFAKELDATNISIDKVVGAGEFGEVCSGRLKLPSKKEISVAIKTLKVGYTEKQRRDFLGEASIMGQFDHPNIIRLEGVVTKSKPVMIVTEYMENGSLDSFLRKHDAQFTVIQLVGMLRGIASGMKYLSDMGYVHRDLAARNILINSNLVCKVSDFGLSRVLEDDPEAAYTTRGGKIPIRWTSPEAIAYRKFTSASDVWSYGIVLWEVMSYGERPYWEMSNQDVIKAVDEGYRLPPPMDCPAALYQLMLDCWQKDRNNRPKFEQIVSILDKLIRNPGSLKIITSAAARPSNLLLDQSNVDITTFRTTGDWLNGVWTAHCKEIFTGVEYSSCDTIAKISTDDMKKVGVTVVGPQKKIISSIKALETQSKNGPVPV
How it was run: as §1

[11] = target: T8, FAK (Homo sapiens, UniProt Q05397)
T8 construct: DNA tag (qPCR read-out)
How it was run: as §1

[12] = target: T9, FLT3(R834Q) (Homo sapiens, UniProt P36888, R834Q)
T9 construct: purchased Ambit Kinomescan (contract panel, KINOMEscan Max)
How it was run: as §1

[13] = target: T10, HPK1 (Homo sapiens, UniProt Q92918)
T10 construct: purchased Ambit Kinomescan (contract panel, KINOMEscan Max)
How it was run: as §1

[14] = target: T11, ICK (Homo sapiens, UniProt Q9UPZ9)
T11 construct: purchased Ambit Kinomescan (contract panel, KINOMEscan Max)
How it was run: as §1

[15] = target: T12, IRAK1 (Homo sapiens, UniProt P51617)
T12 construct: DNA tag (qPCR read-out)
How it was run: as §1

[16] = target: T13, KIT(D816H) (Homo sapiens, UniProt P10721, D816H)
T13 construct: purchased Ambit Kinomescan (contract screening)
How it was run: as §1

[17] = target: T14, KIT(V559D) (Homo sapiens, UniProt P10721, V559D)
T14 construct: purchased Ambit Kinomescan (contract screening)
How it was run: as §1

[18] = target: T15, LCK (Homo sapiens, UniProt P06239)
T15 construct: purchased Ambit Kinomescan (contract panel)
How it was run: as §1

[19] = target: T16, LZK (Homo sapiens, UniProt O43283); settings: 1 μM
T16 construct: purchased Ambit Kinomescan (contract panel)
T16 sequence (O43283 whole entry): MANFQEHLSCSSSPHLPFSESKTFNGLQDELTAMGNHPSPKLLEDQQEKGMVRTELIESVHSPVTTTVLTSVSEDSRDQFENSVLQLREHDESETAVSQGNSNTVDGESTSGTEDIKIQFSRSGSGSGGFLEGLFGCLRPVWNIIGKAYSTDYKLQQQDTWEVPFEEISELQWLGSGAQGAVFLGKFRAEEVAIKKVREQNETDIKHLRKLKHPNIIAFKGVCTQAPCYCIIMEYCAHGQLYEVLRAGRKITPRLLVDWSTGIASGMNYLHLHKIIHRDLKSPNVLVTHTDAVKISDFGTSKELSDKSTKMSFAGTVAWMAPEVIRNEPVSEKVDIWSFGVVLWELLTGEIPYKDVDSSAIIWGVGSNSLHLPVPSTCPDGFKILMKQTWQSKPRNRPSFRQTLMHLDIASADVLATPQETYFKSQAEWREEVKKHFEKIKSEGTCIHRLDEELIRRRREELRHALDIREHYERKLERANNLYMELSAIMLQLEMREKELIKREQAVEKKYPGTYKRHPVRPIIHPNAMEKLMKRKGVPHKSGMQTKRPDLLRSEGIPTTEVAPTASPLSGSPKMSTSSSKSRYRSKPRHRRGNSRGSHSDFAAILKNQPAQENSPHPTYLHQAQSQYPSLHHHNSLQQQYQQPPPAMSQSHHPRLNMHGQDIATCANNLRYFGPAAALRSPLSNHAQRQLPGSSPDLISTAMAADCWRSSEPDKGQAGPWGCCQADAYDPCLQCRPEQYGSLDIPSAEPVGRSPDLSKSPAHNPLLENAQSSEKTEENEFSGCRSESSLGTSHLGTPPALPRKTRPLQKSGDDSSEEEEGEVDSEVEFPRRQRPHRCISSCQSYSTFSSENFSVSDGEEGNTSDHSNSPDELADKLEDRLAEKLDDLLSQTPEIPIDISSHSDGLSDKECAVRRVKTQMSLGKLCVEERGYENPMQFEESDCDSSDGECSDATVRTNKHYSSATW
How it was run: as §1

[20] = target: NEK6 (Homo sapiens, UniProt Q9HC98)
How it was run: as §1

[21] = target: PCTK3 (Homo sapiens, UniProt Q07002)
How it was run: as §1

[22] = target: T17, PFCDPK1(P.falciparum) (Plasmodium falciparum, UniProt P62344)
T17 construct: purchased Ambit Kinomescan (contract screening)
How it was run: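 Active-site competition binding format, not an activity assay. Tagged kinase retained on immobilized ligand is detected by quantitative PCR of its DNA label.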

[23] = target: PHKG1 (Homo sapiens, UniProt Q16816)
How it was run: as §1

[24] = target: T18, PIK3CA(H1047L) (Homo sapiens, UniProt P42336, H1047L)
T18 construct: DNA tag (qPCR read-out)
T18 sequence (P42336 whole entry H1047L): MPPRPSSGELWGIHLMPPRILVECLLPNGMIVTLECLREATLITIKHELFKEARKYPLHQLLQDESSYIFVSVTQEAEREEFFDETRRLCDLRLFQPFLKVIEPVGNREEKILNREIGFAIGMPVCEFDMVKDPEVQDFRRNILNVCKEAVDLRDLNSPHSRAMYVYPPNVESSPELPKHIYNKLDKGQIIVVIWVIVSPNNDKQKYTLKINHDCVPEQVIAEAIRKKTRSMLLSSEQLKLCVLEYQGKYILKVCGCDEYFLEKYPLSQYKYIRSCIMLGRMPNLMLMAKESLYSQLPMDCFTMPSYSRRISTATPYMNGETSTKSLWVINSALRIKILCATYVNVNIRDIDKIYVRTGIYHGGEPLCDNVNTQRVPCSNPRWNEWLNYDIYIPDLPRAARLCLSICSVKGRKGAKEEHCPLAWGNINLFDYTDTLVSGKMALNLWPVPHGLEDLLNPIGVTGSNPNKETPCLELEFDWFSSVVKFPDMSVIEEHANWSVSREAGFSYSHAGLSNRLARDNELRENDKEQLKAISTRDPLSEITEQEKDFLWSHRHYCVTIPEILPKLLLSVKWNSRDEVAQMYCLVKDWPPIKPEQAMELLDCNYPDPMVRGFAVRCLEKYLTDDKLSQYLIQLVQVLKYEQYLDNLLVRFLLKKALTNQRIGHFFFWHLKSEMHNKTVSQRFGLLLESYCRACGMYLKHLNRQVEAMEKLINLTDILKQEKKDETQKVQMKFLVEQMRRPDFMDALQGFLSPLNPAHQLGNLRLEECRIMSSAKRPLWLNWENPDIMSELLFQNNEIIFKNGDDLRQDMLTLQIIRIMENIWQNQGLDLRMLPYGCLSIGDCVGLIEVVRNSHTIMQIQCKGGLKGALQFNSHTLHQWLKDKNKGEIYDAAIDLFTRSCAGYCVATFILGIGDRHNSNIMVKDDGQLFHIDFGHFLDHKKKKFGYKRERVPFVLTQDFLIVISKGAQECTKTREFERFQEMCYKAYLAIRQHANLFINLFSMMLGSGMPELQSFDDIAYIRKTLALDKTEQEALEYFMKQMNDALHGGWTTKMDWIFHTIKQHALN
How it was run: as §1

[25] = target: T19, PIK3CG (Homo sapiens, UniProt P48736)
T19 construct: purchased Ambit Kinomescan (contract screening)
How it was run: as §1

[26] = target: PIP5K1A (Homo sapiens, UniProt Q99755)
How it was run: as §1

[27] = target: T20, PRKCI (Homo sapiens, UniProt P41743)
T20 construct: DNA tag (qPCR read-out)
How it was run: as §1

[28] = target: T21, RIOK1 (Homo sapiens, UniProt Q9BRS2)
T21 construct: DNA tag (qPCR read-out)
How it was run: as §1

[29] = target: T22, RIPK5 (Homo sapiens, UniProt Q6XUX3)
T22 construct: DNA tag (qPCR read-out)
How it was run: as §1

[30] = target: T23, SRMS (Homo sapiens, UniProt Q9H3Y6)
T23 construct: DNA tag (qPCR read-out)
How it was run: as §1

[31] = target: T24, SRPK3 (Homo sapiens, UniProt Q9UPE1)
T24 construct: DNA tag (qPCR read-out)
How it was run: as §1

[32] = target: TRKC (Homo sapiens, UniProt Q16288)
How it was run: as §1

[33] = target: T25, TSSK1B (Homo sapiens, UniProt Q9BXA7)
T25 construct: purchased Ambit Kinomescan (contract screening service)
How it was run: as §1

[34] = target: TXK (Homo sapiens, UniProt P42681)
Sequence of TXK (P42681 whole entry): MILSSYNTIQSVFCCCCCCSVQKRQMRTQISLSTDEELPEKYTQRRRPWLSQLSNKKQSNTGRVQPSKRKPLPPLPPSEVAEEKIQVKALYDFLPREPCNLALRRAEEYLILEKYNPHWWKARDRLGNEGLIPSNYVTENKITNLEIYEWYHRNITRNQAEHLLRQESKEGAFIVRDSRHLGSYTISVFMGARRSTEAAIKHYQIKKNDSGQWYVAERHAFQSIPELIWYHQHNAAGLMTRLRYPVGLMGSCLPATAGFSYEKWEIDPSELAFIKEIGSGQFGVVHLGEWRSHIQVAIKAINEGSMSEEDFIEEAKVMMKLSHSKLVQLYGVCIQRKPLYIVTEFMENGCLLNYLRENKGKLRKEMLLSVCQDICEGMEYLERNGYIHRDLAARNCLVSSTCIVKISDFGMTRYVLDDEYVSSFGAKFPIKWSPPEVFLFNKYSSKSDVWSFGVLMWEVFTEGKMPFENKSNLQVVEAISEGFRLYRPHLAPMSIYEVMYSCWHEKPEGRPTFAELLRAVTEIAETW
How it was run: as §1

Compound: NCCCNc1nc2c(Br)c(Br)c(Br)c(Br)c2[nH]1 [Compound 11, N-(3-aminopropyl)-4,5,6,7-tetrabromo-1H-benzo[d]imidazol-2-amine]
- remaining binding at 1 µM [1]: 100%
- remaining binding at 1 µM [2]: 70%
- remaining binding at 1 µM [3]: 100%
- remaining binding at 1 µM [4]: 97%
- remaining binding at 1 µM [5]: 100%
- % binding [6]: 24%
- % binding [7]: 93%
- % binding [8]: 87%
- % binding [9]: 96%
- remaining binding at 1 µM [10]: 89%
- remaining binding at 1 µM [11]: 89%
- remaining binding at 1 µM [12]: 100%
- remaining binding at 1 µM [13]: 100%
- remaining binding at 1 µM [14]: 100%
- remaining binding at 1 µM [15]: 52%
- remaining binding at 1 µM [16]: 97%
- remaining binding at 1 µM [17]: 97%
- remaining binding at 1 µM [18]: 100%
- % binding [19]: 100%
- remaining binding at 1 µM [20]: 100%
- remaining binding at 1 µM [21]: 92%
- remaining binding at 1 µM [22]: 96%
- remaining binding at 1 µM [23]: 94%
- remaining binding at 1 µM [24]: 100%
- remaining binding at 1 µM [25]: 96%
- remaining binding at 1 µM [26]: 75%
- remaining binding at 1 µM [27]: 100%
- remaining binding at 1 µM [28]: 56%
- remaining binding at 1 µM [29]: 100%
- remaining binding at 1 µM [30]: 100%
- remaining binding at 1 µM [31]: 100%
- remaining binding at 1 µM [32]: 94%
- remaining binding at 1 µM [33]: 100%
- remaining binding at 1 µM [34]: 93%
